# According to patent publication US20170165254A1, “TREATING FLAVIVIRUS INFECTIONS WITH AMODIAQUINE AND DERIVATIVES THEREOF” (GEORGETOWN UNIVERSITY, priority 2014, published 2017):
# Counter-ions that a name gives are not always drawn. Like-named read-outs stand apart in the source and are kept apart here.
# Key:
# WNV replicon = assay: microbe, parasite or virus in culture; assay type: cell-based, West Nile virus (WNV); settings: for EC50: read-out: WNV replicon EC50; for inhibition of WNV replicon replication (in words): FIG. 1B; for inhibition at 50 µM: read-out: % Replicon Inhibition (Means ± SEM) WNV
# DENV2 replicon = assay: microbe, parasite or virus in culture; assay type: cell-based, Dengue Virus 2 (DENV2); settings: for inhibition at 50 µM: DENV2, BHK-21, read-out: % Replicon Inhibition (Means ± SEM) DENV2
# in vitro [1] = settings: hamster
# in vitro [2] = settings: African green monkey
# Vero cells = assay: Cytotoxicity assay, Vero cells; settings: read-out: WNV replicon CC50; Table 2; unit inferred
# BHK-21 cells = assay: Cytotoxicity assay, BHK-21 cells; settings: read-out: DENV replicon CC50; Table 2; unit inferred
# [3] = 50 μM in 1% DMSO, Vero/WNV replicon cells
Structure (SMILES),% Replicon Inhibition (Means ± SEM) WNV (WNV replicon; [3]),"EC50 (WNV replicon; Table 2, unit inferred)",% Replicon Inhibition (Means ± SEM) DENV2 (DENV2 replicon),EC50 (DENV2 replicon; read-out: DENV replicon EC50),inhibition of WNV replicon replication (in words) (WNV replicon; Vero/WNV replicon cells),inhibition of DENV2 replicon replication (in words) (DENV2 replicon),"inhibition at 50 µM (WNV replicon; West Nile virus, Vero)",inhibition at 50 µM (DENV2 replicon; Dengue virus),other results
CC[N+](C)(CC)Cc1cc(Nc2ccnc3cc(Cl)ccc23)ccc1O [AQ derivative 2],50.6 ± 4.4%,30.2 ± 6.05 µM,69.9 ± 3.4%,29.7 ± 2.26 µM,–,–,–,–,–
CCN(CC)Cc1cc(Nc2c(C3CCCC3)c(C)nc3cc(Cl)ccc23)ccc1O [AQ derivative 4],99.8 ± 0.01%,3.31 ± 0.73 µM,99.99 ± 0.0%,15.4 ± 1.31 µM,strong inhibition,strong inhibition,–,–,–
CC(CCc1ccc(N(CCCl)CCCl)cc1)Nc1ccnc2cc(Cl)ccc12 (stereo not drawn) [chloroquine ethyl phenyl mustard],–,–,99.8 ± 0.03%,–,–,–,> 99%,> 99%,"% Replicon Inhibition (Means ± SEM) WNV (WNV replicon): 99.5 ± 0.05%; EC50 (WNV replicon; West Nile virus, Vero): 1.55 ± 0.4 µM; CC50 (in vitro [1]): 74.1 ± 21.5 µM; EC50 (DENV2 replicon; Dengue virus, DENV2, BHK-21, read-out: DENV replicon EC50): 3.6 ± 0.83 µM; CC50 (in vitro [2]): 5.02 ± 1.23 µM"
CCN(CC)Cc1cc(Nc2c(C)cnc3cc(Cl)ccc23)ccc1O [AQ derivative 1],97.9 ± 0.5%,14.8 ± 0.48 µM,89.9 ± 10.6%,21.1 ± 1.22 µM,strong inhibition,strong inhibition,–,–,–
"C=C[C@H]1C[N@@]2CC[C@H]1C[C@H]2[C@H](O)c1ccnc2ccc(OC)cc12 [quinine, hydrobromide hydrate]",–,–,–,–,–,–,34.9 ± 6.7%,2.8 ± 0.25%,–
C=CN(C)Cc1cc(Nc2ccnc3cc(Cl)ccc23)ccc1O [AQ derivative 6],99.5 ± 0.1%,6.29 ± 0.52 µM,98.5 ± 1.3%,12.5 ± 2.19 µM,strong inhibition,strong inhibition,–,–,CC50 (Vero cells): 18.2 ± 1.05 µM; CC50 (BHK-21 cells): 16.4 ± 0.46 µM
COc1cc(NC(C)CCCN)c2ncccc2c1 (stereo not drawn) [primaquine],–,–,–,–,–,–,< 0%,< 0%,–
